Source: ChEMBL document CHEMBL5724914, “Linking interpersonal differences in gut microbiota composition and drug biotransformation activity” (2024)

Key:
[1] = (§1) The drug is tested on Z-030 corresponding to mouse gut metagenome with ENA study accession number: PRJEB37062 and ENA sample accession number: ERS12561829 for biotransformation under anaerobic condition. The drug concentrations were measured over 9 timepoints collected between 0 and 24 hours of incubation by liquid-chromatography-coupled mass spectrometry (LC–MS); conditions: 2 µM
[2] = as §1, with “Z-026” for “Z-030”, “to” for “to mouse gut”, “ERS12561825” for “ERS12561829”; conditions: 2 µM
[3] = as §1, with “Z-014” for “Z-030”, “rat” for “mouse”, “ERS12561814” for “ERS12561829”; conditions: 2 µM
[4] = as §1, with “Z-001” for “Z-030”, “ERS12561801” for “ERS12561829”; conditions: 2 µM
[5] = as §1, with “WLS-370” for “Z-030”, “human” for “mouse”, “ERS12561793” for “ERS12561829”; conditions: 2 µM
[6] = as §1, with “WLS-310” for “Z-030”, “human” for “mouse”, “ERS12561785” for “ERS12561829”; conditions: 2 µM
[7] = as §1, with “WLS-077” for “Z-030”, “human” for “mouse”, “ERS12561750” for “ERS12561829”; conditions: 2 µM
[8] = as §1, with “WLS-073” for “Z-030”, “human” for “mouse”, “ERS12561749” for “ERS12561829”; conditions: 2 µM
[9] = as §1, with “WLS-052” for “Z-030”, “human” for “mouse”, “ERS12561747” for “ERS12561829”; conditions: 2 µM
[10] = human gut metagenome, 24 h, 2 µM
[11] = human gut metagenome, 24 h, 2 µM; remark: listed apart in the source
[12] = human gut metagenome, 24 h, 2 µM; remark: listed apart in the source
[13] = human gut metagenome, 24 h, 2 µM; remark: listed apart in the source
[14] = human gut metagenome, 24 h, 2 µM; remark: listed apart in the source
[15] = human gut metagenome, 24 h, 2 µM; remark: listed apart in the source
[16] = human gut metagenome, 24 h, 2 µM; remark: listed apart in the source
[17] = human gut metagenome, 24 h, 2 µM; remark: listed apart in the source
[18] = human gut metagenome, 24 h, 2 µM; remark: listed apart in the source
[19] = human gut metagenome, 24 h, 2 µM; remark: listed apart in the source
[20] = human gut metagenome, 24 h, 2 µM; remark: listed apart in the source
Further: call rule not given here.

O=C(Nc1ccccc1)OCC(CN1CCCCC1)OC(=O)Nc1ccccc1 (stereo not given) [DIPERODON]
Bacterial Biotransformation [1]: Compound NOT metabolized
Bacterial Biotransformation [2]: Compound NOT metabolized
Bacterial Biotransformation [3]: Compound NOT metabolized
Bacterial Biotransformation [4]: Compound NOT metabolized
Bacterial Biotransformation [5]: Compound NOT metabolized
Bacterial Biotransformation [6]: Compound metabolized
Bacterial Biotransformation [7]: Compound NOT metabolized
Bacterial Biotransformation [8]: Compound NOT metabolized
Bacterial Biotransformation [9]: Compound NOT metabolized
Bacterial Biotransformation [10]: Compound NOT metabolized
Bacterial Biotransformation [11]: Compound NOT metabolized
Bacterial Biotransformation [12]: Compound metabolized
Bacterial Biotransformation [13]: Compound metabolized
Bacterial Biotransformation [14]: Compound metabolized
Bacterial Biotransformation [15]: Compound metabolized
Bacterial Biotransformation [16]: Compound NOT metabolized
Bacterial Biotransformation [17]: Compound NOT metabolized
Bacterial Biotransformation [18]: Compound NOT metabolized
Bacterial Biotransformation [19]: Compound NOT metabolized
Bacterial Biotransformation [20]: Compound NOT metabolized

CC(C)N(CCC(C(N)=O)(c1ccccc1)c1ccccn1)C(C)C.O=P(O)(O)O (stereo not given) [DISOPYRAMIDE PHOSPHATE]
Bacterial Biotransformation [1]: Compound NOT metabolized
Bacterial Biotransformation [2]: Compound NOT metabolized
Bacterial Biotransformation [3]: Compound NOT metabolized
Bacterial Biotransformation [4]: Compound NOT metabolized
Bacterial Biotransformation [5]: Compound NOT metabolized
Bacterial Biotransformation [6]: Compound metabolized
Bacterial Biotransformation [7]: Compound NOT metabolized
Bacterial Biotransformation [8]: Compound NOT metabolized
Bacterial Biotransformation [9]: Compound NOT metabolized
Bacterial Biotransformation [10]: Compound NOT metabolized
Bacterial Biotransformation [11]: Compound NOT metabolized
Bacterial Biotransformation [12]: Compound NOT metabolized
Bacterial Biotransformation [13]: Compound NOT metabolized
Bacterial Biotransformation [14]: Compound NOT metabolized
Bacterial Biotransformation [15]: Compound NOT metabolized
Bacterial Biotransformation [16]: Compound NOT metabolized
Bacterial Biotransformation [17]: Compound NOT metabolized
Bacterial Biotransformation [18]: Compound NOT metabolized
Bacterial Biotransformation [19]: Compound NOT metabolized
Bacterial Biotransformation [20]: Compound NOT metabolized

C[C@@H](CO)NC(=O)[C@@H]1C=C2c3cccc4[nH]cc(c34)C[C@H]2N(C)C1.O=C(O)/C=C\C(=O)O [ERGONOVINE MALEATE]
Bacterial Biotransformation [1]: Compound NOT metabolized
Bacterial Biotransformation [2]: Compound NOT metabolized
Bacterial Biotransformation [3]: Compound NOT metabolized
Bacterial Biotransformation [4]: Compound NOT metabolized
Bacterial Biotransformation [5]: Compound metabolized
Bacterial Biotransformation [6]: Compound metabolized
Bacterial Biotransformation [7]: Compound metabolized
Bacterial Biotransformation [8]: Compound metabolized
Bacterial Biotransformation [9]: Compound metabolized
Bacterial Biotransformation [10]: Compound NOT metabolized
Bacterial Biotransformation [11]: Compound metabolized
Bacterial Biotransformation [12]: Compound metabolized
Bacterial Biotransformation [13]: Compound metabolized
Bacterial Biotransformation [14]: Compound metabolized
Bacterial Biotransformation [15]: Compound NOT metabolized
Bacterial Biotransformation [16]: Compound NOT metabolized
Bacterial Biotransformation [17]: Compound metabolized
Bacterial Biotransformation [18]: Compound metabolized
Bacterial Biotransformation [19]: Compound metabolized
Bacterial Biotransformation [20]: Compound metabolized

CCN(CC)C(C)CN1c2ccccc2Sc2ccccc21 (stereo not given) [ETHOPROPAZINE]
Bacterial Biotransformation [1]: Compound NOT metabolized
Bacterial Biotransformation [2]: Compound NOT metabolized
Bacterial Biotransformation [3]: Compound NOT metabolized
Bacterial Biotransformation [4]: Compound metabolized
Bacterial Biotransformation [5]: Compound metabolized
Bacterial Biotransformation [6]: Compound metabolized
Bacterial Biotransformation [7]: Compound metabolized
Bacterial Biotransformation [8]: Compound metabolized
Bacterial Biotransformation [9]: Compound metabolized
Bacterial Biotransformation [10]: Compound metabolized
Bacterial Biotransformation [11]: Compound metabolized
Bacterial Biotransformation [12]: Compound metabolized
Bacterial Biotransformation [13]: Compound metabolized
Bacterial Biotransformation [14]: Compound metabolized
Bacterial Biotransformation [15]: Compound metabolized
Bacterial Biotransformation [16]: Compound metabolized
Bacterial Biotransformation [17]: Compound metabolized
Bacterial Biotransformation [18]: Compound metabolized
Bacterial Biotransformation [19]: Compound metabolized
Bacterial Biotransformation [20]: Compound metabolized

Cc1nc(-c2ccc(OCC(C)C)c(C#N)c2)sc1C(=O)O [FEBUXOSTAT]
Bacterial Biotransformation [1]: Compound NOT metabolized
Bacterial Biotransformation [2]: Compound NOT metabolized
Bacterial Biotransformation [3]: Compound NOT metabolized
Bacterial Biotransformation [4]: Compound NOT metabolized
Bacterial Biotransformation [5]: Compound metabolized
Bacterial Biotransformation [6]: Compound metabolized
Bacterial Biotransformation [7]: Compound metabolized
Bacterial Biotransformation [8]: Compound NOT metabolized
Bacterial Biotransformation [9]: Compound metabolized
Bacterial Biotransformation [10]: Compound metabolized
Bacterial Biotransformation [11]: Compound metabolized
Bacterial Biotransformation [12]: Compound metabolized
Bacterial Biotransformation [13]: Compound metabolized
Bacterial Biotransformation [14]: Compound metabolized
Bacterial Biotransformation [15]: Compound metabolized
Bacterial Biotransformation [16]: Compound metabolized
Bacterial Biotransformation [17]: Compound NOT metabolized
Bacterial Biotransformation [18]: Compound metabolized
Bacterial Biotransformation [19]: Compound metabolized
Bacterial Biotransformation [20]: Compound metabolized

CC(C)(C(=O)O)c1ccc(C(O)CCCN2CCC(C(O)(c3ccccc3)c3ccccc3)CC2)cc1 (stereo not given) [FEXOFENADINE]
Bacterial Biotransformation [1]: Compound NOT metabolized
Bacterial Biotransformation [2]: Compound NOT metabolized
Bacterial Biotransformation [3]: Compound NOT metabolized
Bacterial Biotransformation [4]: Compound NOT metabolized
Bacterial Biotransformation [5]: Compound NOT metabolized
Bacterial Biotransformation [6]: Compound NOT metabolized
Bacterial Biotransformation [7]: Compound NOT metabolized
Bacterial Biotransformation [8]: Compound NOT metabolized
Bacterial Biotransformation [9]: Compound NOT metabolized
Bacterial Biotransformation [10]: Compound NOT metabolized
Bacterial Biotransformation [11]: Compound NOT metabolized
Bacterial Biotransformation [12]: Compound NOT metabolized
Bacterial Biotransformation [13]: Compound NOT metabolized
Bacterial Biotransformation [14]: Compound NOT metabolized
Bacterial Biotransformation [15]: Compound NOT metabolized
Bacterial Biotransformation [16]: Compound NOT metabolized
Bacterial Biotransformation [17]: Compound NOT metabolized
Bacterial Biotransformation [18]: Compound NOT metabolized
Bacterial Biotransformation [19]: Compound NOT metabolized
Bacterial Biotransformation [20]: Compound NOT metabolized

COc1ccc2c3c1O[C@H]1C[C@@H](O)C=C[C@@]31CCN(C)C2 [GALANTAMINE]
Bacterial Biotransformation [1]: Compound NOT metabolized
Bacterial Biotransformation [2]: Compound NOT metabolized
Bacterial Biotransformation [3]: Compound NOT metabolized
Bacterial Biotransformation [4]: Compound NOT metabolized
Bacterial Biotransformation [5]: Compound NOT metabolized
Bacterial Biotransformation [6]: Compound metabolized
Bacterial Biotransformation [7]: Compound NOT metabolized
Bacterial Biotransformation [8]: Compound NOT metabolized
Bacterial Biotransformation [9]: Compound NOT metabolized
Bacterial Biotransformation [10]: Compound metabolized
Bacterial Biotransformation [11]: Compound NOT metabolized
Bacterial Biotransformation [12]: Compound metabolized
Bacterial Biotransformation [13]: Compound metabolized
Bacterial Biotransformation [14]: Compound metabolized
Bacterial Biotransformation [15]: Compound NOT metabolized
Bacterial Biotransformation [16]: Compound NOT metabolized
Bacterial Biotransformation [17]: Compound NOT metabolized
Bacterial Biotransformation [18]: Compound metabolized
Bacterial Biotransformation [19]: Compound NOT metabolized
Bacterial Biotransformation [20]: Compound NOT metabolized

Cc1ccc(S(=O)(=O)NC(=O)NN2CC3CCCC3C2)cc1 (stereo not given) [GLICLAZIDE]
Bacterial Biotransformation [1]: Compound NOT metabolized
Bacterial Biotransformation [2]: Compound metabolized
Bacterial Biotransformation [3]: Compound NOT metabolized
Bacterial Biotransformation [4]: Compound metabolized
Bacterial Biotransformation [5]: Compound metabolized
Bacterial Biotransformation [6]: Compound metabolized
Bacterial Biotransformation [7]: Compound metabolized
Bacterial Biotransformation [8]: Compound metabolized
Bacterial Biotransformation [9]: Compound metabolized
Bacterial Biotransformation [10]: Compound metabolized
Bacterial Biotransformation [11]: Compound metabolized
Bacterial Biotransformation [12]: Compound metabolized
Bacterial Biotransformation [13]: Compound metabolized
Bacterial Biotransformation [14]: Compound metabolized
Bacterial Biotransformation [15]: Compound metabolized
Bacterial Biotransformation [16]: Compound metabolized
Bacterial Biotransformation [17]: Compound metabolized
Bacterial Biotransformation [18]: Compound metabolized
Bacterial Biotransformation [19]: Compound NOT metabolized
Bacterial Biotransformation [20]: Compound metabolized
